Where two headings read alike, the source gives them in different places.
Target: T1, K-RasG12C (1-169) (Homo sapiens, UniProt P01116, G12C)
T1 construct: Un-tagged recombinant K-Ras G12C (1-169) at 4 μM in Buffer A; hexahistidine (cleaved yes); made in house; host or cells: Escherichia coli BL21 (DE)
Test: Mass spectrometric screen for extent of covalent labeling
Assay type: binding
Conditions: for percent covalent labeling at 10 µM: 10 micromolar; for Labeling % (10 micM) 24h: 10 micM compound, (plate) or (single) measurement
Method: Un-tagged recombinant K-Ras G12C (1-169) at 4 μM in Buffer A was reacted with inhibitors at 200 μM or 10 μM (2% DMSO final). At 2, 6, and 24 hrs, 10 μL aliquots were removed and the reactions were stopped by addition of 1 μL 2% formic acid. The extent of modification was determined by mass spectrometry.

[1] = 2 h, 2 hrs, read-out: Percent reduction in activity of compound at 10 micromolar relative to control (no compound), 2 hrs
[2] = 6 h, 6 hrs, read-out: Percent reduction in activity of compound at 10 micromolar relative to control (no compound), 6 hrs
[3] = 24 h, 24 hrs, read-out: Percent reduction in activity of compound at 10 micromolar relative to control (no compound), 24 hrs

Row | Structure (SMILES) | percent covalent labeling at 10 µM [1] [%] | percent covalent labeling at 10 µM [2] [%] | percent covalent labeling at 10 µM [3] [%] | Labeling % (10 micM) 24h | Labeling % (10 micM) 24h (Table 5)
1 | C=CC(=O)NC1CCN(C(=O)COc2ccc(Cl)cc2Cl)CC1 [JO-01-171] | ≤ 5 | ≤ 5 | ≤ 5 | – | –
2 | C=CC(=O)N1CCN(C(=O)COc2ccc(Cl)cc2Cl)CC1 [JO-01-172] | ≤ 5 | ≤ 5 | ≤ 5 | – | –
3 | C=CS(=O)(=O)NC1CCN(C(=O)CSc2ccc(Cl)cc2Cl)CC1 [JO-02-26] | ≤ 5 | ≤ 5 | 5 to 20 | – | –
4 | C=CS(=O)(=O)NC1CCN(C(=O)COc2ccc(Cl)cc2Cl)CC1 [JO-02-31A] | ≤ 5 | ≤ 5 | – | ++ (plate) (5% < ++ <=20%) | ++ (plate) (5% < ++ <=20%)
5 | C=CS(=O)(=O)NC1CCN(C(=O)CSc2ccc(Cl)cc2C)CC1 [JO-02-31B] | ≤ 5 | ≤ 5 | 5 to 20 | – | –
6 | C=CS(=O)(=O)NC1CCN(C(=O)CSc2ccc(Cl)c3ccccc23)CC1 [JO-02-31C] | ≤ 5 | ≤ 5 | 20 to 40 | – | –
7 | C=CS(=O)(=O)NC1CCN(C(=O)CSc2c(Cl)cccc2Cl)CC1 [JO-02-31D] | ≤ 5 | ≤ 5 | ≤ 5 | – | –
8 | C=CS(=O)(=O)NCCNC(=O)COc1ccc(Cl)cc1Cl [JO-02-36A] | ≤ 5 | ≤ 5 | ≤ 5 | – | –
9 | C=CS(=O)(=O)NCCCNC(=O)COc1ccc(Cl)cc1Cl [JO-02-36B] | ≤ 5 | ≤ 5 | ≤ 5 | – | –
10 | C=CC(=O)NCCNC(=O)COc1ccc(Cl)cc1Cl [JO-02-37A] | ≤ 5 | ≤ 5 | ≤ 5 | – | –
11 | C=CC(=O)NCCCNC(=O)COc1ccc(Cl)cc1Cl [JO-02-37B] | ≤ 5 | ≤ 5 | ≤ 5 | – | –
12 | C=CS(=O)(=O)Nc1cc(-c2cccs2)n[nH]1 [JO-02-38B] | ≤ 5 | ≤ 5 | ≤ 5 | – | –
13 | C=CS(=O)(=O)NC1CCN(C(=O)c2cc3cc(Cl)ccc3[nH]2)CC1 [JO-02-49A] | ≤ 5 | ≤ 5 | ≤ 5 | – | –
14 | C=CS(=O)(=O)NC1CCN(C(=O)c2cc3cc(F)ccc3[nH]2)CC1 [JO-02-49B] | ≤ 5 | ≤ 5 | ≤ 5 | – | –
15 | C=CS(=O)(=O)NC1CCN(C(=O)c2cc3cc(OC)ccc3[nH]2)CC1 [JO-02-49C] | ≤ 5 | ≤ 5 | ≤ 5 | – | –
16 | C=CS(=O)(=O)N1CCC(NC(=O)COc2ccc(Cl)cc2Cl)CC1 [JO-02-55] | ≤ 5 | ≤ 5 | 5 to 20 | – | –
17 | C=CS(=O)(=O)NCC(=O)NC1CCN(C(=O)COc2ccc(Cl)cc2Cl)CC1 [JO-02-56A] | ≤ 5 | ≤ 5 | 40 to 60 | ++++ (plate) (40% < ++++ <=60%) | ++++ (plate) (40% < ++++ <=60%)
18 | C=CS(=O)(=O)NCC(=O)N1CCC(NC(=O)COc2ccc(Cl)cc2Cl)CC1 [JO-02-56B] | ≤ 5 | ≤ 5 | 5 to 20 | – | –

Row | Structure (SMILES) | percent covalent labeling at 10 µM [1] [%] | percent covalent labeling at 10 µM [2] [%] | percent covalent labeling at 10 µM [3] [%] | Labeling % (10 micM) 24h | Labeling % (10 micM) 24h (Table 5)
19 | O=C(NC1CCN(C(=O)COc2ccc(Cl)cc2Cl)CC1)C1CO1 (centres unmarked) [JO-02-72] | ≤ 5 | ≤ 5 | ≤ 5 | – | –
20 | C=CS(=O)(=O)N1CC2CN(C(=O)COc3ccc(Cl)cc3Cl)CC2C1 (centres unmarked) [JO-02-74A] | ≤ 5 | ≤ 5 | 20 to 40 | – | –
21 | C=CS(=O)(=O)N1CCC2(CCN(C(=O)COc3ccc(Cl)cc3Cl)C2)C1 (centres unmarked) [JO-02-74B] | ≤ 5 | ≤ 5 | 5 to 20 | – | –
22 | C=CS(=O)(=O)N1CCC2(CN(C(=O)COc3ccc(Cl)cc3Cl)C2)C1 [JO-02-74C] | ≤ 5 | ≤ 5 | 5 to 20 | – | –
23 | O=C(COc1ccc(Cl)cc1Cl)N1CCC(NCC2CO2)CC1 (centres unmarked) [JO-02-77A] | ≤ 5 | ≤ 5 | ≤ 5 | – | –
24 | C=CS(=O)(=O)N1CCC2(CC1)CN(C(=O)COc1ccc(Cl)cc1Cl)C2 [JO-02-112A] | ≤ 5 | ≤ 5 | 5 to 20 | – | –
25 | C=CS(=O)(=O)C1CCC2(CC1)CCN(C(=O)COc1ccc(Cl)cc1Cl)C2 (centres unmarked) [JO-02-112B] | ≤ 5 | ≤ 5 | 5 to 20 | – | –
26 | C=CS(=O)(=O)NCC1CCN(C(=O)COc2ccc(Cl)cc2Cl)CC1 [JO-02-112C] | ≤ 5 | ≤ 5 | ≤ 5 | – | –
27 | C=CS(=O)(=O)N1CCN(C(=O)COc2ccc(Cl)cc2Cl)CC1 [JO-02-112D] | ≤ 5 | ≤ 5 | 20 to 40 | +++ (plate) (20%< +++ <=40%) | +++ (plate) (20%< +++ <=40%)
28 | C=CS(=O)(=O)NC1CCN(C(=O)COc2ccc(Cl)cc2)CC1 [JO-02-115A] | ≤ 5 | ≤ 5 | ≤ 5 | – | –
29 | C=CS(=O)(=O)NC1CCN(C(=O)C(C)Oc2ccc(Cl)cc2Cl)CC1 (centres unmarked) [JO-02-115B] | ≤ 5 | ≤ 5 | ≤ 5 | – | –
30 | C=CS(=O)(=O)NC1CCN(C(=O)[C@@H](C)Oc2ccc(Cl)cc2Cl)CC1 [JO-02-115C] | ≤ 5 | ≤ 5 | ≤ 5 | – | –
31 | C=CS(=O)(=O)NC1CCN(C(=O)COc2cc(Cl)c(Cl)cc2Cl)CC1 [JO-02-115D] | ≤ 5 | ≤ 5 | 20 to 40 | – | –
32 | C=CS(=O)(=O)NC1CCN(C(=O)C(C)Oc2cc(Cl)c(Cl)cc2Cl)CC1 (centres unmarked) [JO-02-116A] | ≤ 5 | ≤ 5 | ≤ 5 | – | –
33 | C=CS(=O)(=O)NC1CCN(C(=O)COc2nc(Cl)c(Cl)cc2Cl)CC1 [JO-02-116B] | ≤ 5 | ≤ 5 | ≤ 5 | – | –
34 | C=CS(=O)(=O)NCC(=O)Nc1cc(-c2cccs2)n[nH]1 [JO-02-125] | ≤ 5 | ≤ 5 | 20 to 40 | – | –
35 | C=CS(=O)(=O)NCC(=O)Nc1cc(-c2ccc(Cl)cc2)n[nH]1 [JO-02-139E] | ≤ 5 | ≤ 5 | ≤ 5 | – | –
36 | C=CS(=O)(=O)NC1CCN(C(=O)CNc2cc(Cl)c(Cl)cc2I)CC1 [JO-02-144] | ≤ 5 | 5 to 20 | > 60 | – | –

Source: patent publication US11008334B2, “Compositions and methods for treating cancer” (The Regents of the University of California, priority 2012, dated 2021)
